# Test results reported in patent publication US20110190269A1, “GAMMA SECRETASE MODULATORS” (priority 2010, published 2011).
# Test system: γ-secretase
# Assay: Cellular γ-secretase assay (inhibition of Aβ42 secretion)
# Assay type: cell-based
# Conditions: human neuroglioma H4 cells overexpressing human APP, 22 hrs incubation
# Description: Human neuroglioma H4 cells overexpressing human APP were plated at 30,000 cells/well/[…] in 96-well plates in IMDM media containing 10% FCS, […] Hygromycin B and incubated for 2 h at 37° C., 5% CO2 prior to adding test compounds.
# Compounds for testing were dissolved in 100% Me2SO yielding in a 10 mM stock solution. Typically […] of these solutions were further diluted in 1000 μl of IMDM media (w/o FCS). Subsequent 1:1 dilutions gave a ten point dose response curve. 100 μl of each dilution was added to the cells in 96-well plates. Appropriate controls using vehicle only and reference compound were applied to this assay. The final concentration of Me2S0 was 0.4%.
# After incubation for 22 hrs at 37° C., 5% CO2, 50 μl supernatant was transferred into round-bottom 96-well polypropylene plates for detection of Aβ42. 50 μl assay buffer (50 mM Tris/Cl, pH 7.4, 60 mM NaCl, 0.5% BSA, 1% TWEEN 20) was added to the wells followed by the addition of 100 μl of detection antibody (ruthenylated BAP15 0.0625 μg/ml in assay buffer). 50 μl of a premix of capture antibody (biotinylated 6E10 antibody, 1 μg/ml) and Steptavidin-coated magnetic beads (Dynal M-280, 0.125 mg/ml) were preincubated for 1 hr at room temperature before adding the assay plates. Assay plates were incubated on a shaker for 3 hrs at room temperature and finally read in the Bioveris M8 Analyser according to the manufacturer's instructions (Bioveris).
# IC50 values for inhibition of Aβ42 secretion were calculated by nonlinear regression fit analysis using XLfit 4.0 software (IDBS).
row,Structure (SMILES),EC50
1,"COc1cc(Nc2nc3cccc(-c4ccc(F)cc4)n3n2)ccc1-n1cnc(C)c1 [Example 8, [5-(4-Fluoro-phenyl)-[1,2,4]triazolo[1,5-a]pyridin-2-yl]-[3-methoxy-4-(4-methyl-imidazol-1-yl)-phenyl]-amine]",50 nM
2,"COc1cc(Nc2nc3nc(C)cc(C(C)(C)C)n3n2)ccc1-n1cnc(C)c1 [Example 15, (7-tert-Butyl-5-methyl-[1,2,4]triazolo[1,5-a]pyrimidin-2-yl)-[3-methoxy-4-(4-methyl-imidazol-1-yl)-phenyl]-amine acetate]",572 nM
3,"COc1cc(Nc2nc3c(-c4ccc(F)c(F)c4)ccc(C(F)(F)F)n3n2)ccc1-n1cnc(C)c1 [Example 135, 8-(3,4-difluorophenyl)-N-(3-methoxy-4-(4-methyl-1H-imidazol-1-yl)phenyl)-5-(trifluoromethyl)-[1,2,4]triazolo[1,5-a]pyridin-2-amine]",141 nM
4,"COc1cc(Nc2nc3n(n2)CCN(C(=O)C(C)C)C3c2ccc(F)cc2)ccc1-n1cnc(C)c1 (centres unmarked) [Example 59, 1-(8-(4-Fluorophenyl)-2-(3-methoxy-4-(4-methyl-1H-imidazol-1-yl)phenylamino)-5,6-dihydro-[1,2,4]triazolo[1,5-a]pyrazin-7(8H)-yl)-2-methylpropan-1-one]",590 nM
5,"COc1cc(Nc2nc3c(C)cnc(OCC(F)(F)F)n3n2)ccc1-n1cnc(C)c1 [Example 72, [3-Methoxy-4-(4-methyl-imidazol-1-yl)-phenyl]-[8-methyl-5-(2,2,2-trifluoro-ethoxy)-[1,2,4]triazolo[1,5-c]pyrimidin-2-yl]-amine]",355 nM
6,"COC(=O)c1cc(-c2cccc(OC(F)F)c2)n2nc(Nc3ccc(-n4cnc(C)c4)c(OC)c3)nc2n1 [Example 19, 7-(3-Difluoromethoxy-phenyl)-2-[3-methoxy-4-(4-methyl-imidazol-1-yl)-phenylamino]-[1,2,4]triazolo[1,5-a]pyrimidine-5-carboxylic acid methyl ester acetate]",953 nM
7,"COc1cc(Nc2nc3c(C4=CCN(C(=O)OC(C)(C)C)CC4)cc(C)cn3n2)ccc1-n1cnc(C)c1 [Example 96, tert-Butyl 4-(2-(3-methoxy-4-(4-methyl-1H-imidazol-1-yl)phenylamino)-6-methyl-[1,2,4]triazolo[1,5-a]pyridin-8-yl)-5,6-dihydropyridine-1(2H)-carboxylate]",93 nM
8,"COc1cc(Nc2nc3c(-c4ccc(F)cc4Cl)cc(C)cn3n2)ccc1-n1cnc(C)c1 [Example 65, [8-(2-Chloro-4-fluoro-phenyl)-6-methyl-[1,2,4]triazolo[1,5-a]pyridin-2-yl]-[3-methoxy-4-(4-methyl-imidazol-1-yl)-phenyl]-amine]",24 nM
9,"COc1cc(Nc2nc3nc(C(C)C)cc(C(C)C)n3n2)ccc1-n1cnc(C)c1 [Example 25, (5,7-Diisopropyl-[1,2,4]triazolo[1,5-a]pyrimidin-2-yl)-[3-methoxy-4-(4-methyl-imidazol-1-yl)-phenyl]-amine acetate]",601 nM
10,"COc1cccn2nc(Nc3ccc(-n4cnc(C)c4)c(C#N)c3)nc12 [Example 3, 5-(8-Methoxy-[1,2,4]triazolo[1,5-a]pyridin-2-ylamino)-2-(4-methyl-imidazol-1-yl)-benzonitrile]",3350 nM
11,"COc1cc(Nc2nc3ccnc(-c4ccc(F)cc4)n3n2)ccc1-n1cnc(C)c1 [Example 45, [5-(4-Fluoro-phenyl)-[1,2,4]triazolo[1,5-c]pyrimidin-2-yl]-[3-methoxy-4-(4-methyl-imidazol-1-yl)-phenyl]-amine]",1400 nM
12,"COc1cc(Nc2nc3ncc(C#N)c(-c4ccc(Cl)cc4)n3n2)ccc1-n1cnc(C)c1 [Example 39, 7-(4-Chloro-phenyl)-2-[3-methoxy-4-(4-methyl-imidazol-1-yl)-phenylamino]-[1,2,4]triazolo[1,5-a]pyrimidine-6-carbonitrile]",145 nM
13,"COc1cc(Nc2nc3c(Oc4cccc(Cl)c4)cccn3n2)ccc1-n1cnc(C)c1 [Example 137, 8-(3-chlorophenoxy)-N-(3-methoxy-4-(4-methyl-1H-imidazol-1-yl)phenyl)-[1,2,4]triazolo[1,5-a]pyridin-2-amine]",266 nM
14,"COc1cc(Nc2nc3c(OC)ccc(-c4ccc(F)cc4)n3n2)ccc1-n1cnc(C)c1 [Example 22, [5-(4-Fluoro-phenyl)-8-methoxy-[1,2,4]triazolo[1,5-a]pyridin-2-yl]-[3-methoxy-4-(4-methyl-imidazol-1-yl)-phenyl]-amine]",74 nM
15,"COc1cc(Nc2nc3c(-c4ccc(F)c(F)c4F)ccc(C(C)(C)O)n3n2)ccc1-n1cnc(C)c1 [Example 122, 2-[2-[3-Methoxy-4-(4-methyl-imidazol-1-yl)-phenylamino]-8-(2,3,4-trifluoro-phenyl)-[1,2,4]triazolo[1,5-a]pyridin-5-yl]-propan-2-ol]",79 nM
16,"COc1cc(Nc2nc3c(-c4ccc(C(C)(C)O)c(F)c4)cc(C)cn3n2)ccc1-n1cnc(C)c1 [Example 90, 2-(2-Fluoro-4-(2-(3-methoxy-4-(4-methyl-1H-imidazol-1-yl)phenylamino)-6-methyl-[1,2,4]triazolo[1,5-a]pyridin-8-yl)phenyl)propan-2-ol]",475 nM
17,"COc1cc(Nc2nc3n(n2)C(c2ccccc2)CCO3)ccc1-n1cnc(C)c1 (centres unmarked) [Example 109, N-(3-Methoxy-4-(4-methyl-1H-imidazol-1-yl)phenyl)-7-phenyl-6,7-dihydro-5H-[1,2,4]triazolo[5,1-b][1,3]oxazin-2-amine]",270 nM
18,"CCOC(=O)c1cc(-c2ccc(F)c(Cl)c2)n2nc(Nc3ccc(-n4cnc(C)c4)c(OC)c3)nc2n1 [Example 94, Ethyl 7-(3-chloro-4-fluorophenyl)-2-(3-methoxy-4-(4-methyl-1H-imidazol-1-yl)phenylamino)-[1,2,4]triazolo[1,5-a]pyrimidine-5-carboxylate]",39 nM
19,"COc1cc(Nc2nc3c(-c4ccc(F)c(F)c4)cc(Cl)cn3n2)ccc1-n1cnc(C)c1 [Example 81, 6-Chloro-8-(3,4-difluorophenyl)-N-(3-methoxy-4-(4-methyl-1H-imidazol-1-yl)phenyl)-[1,2,4]triazolo[1,5-a]pyridin-2-amine]",22 nM
20,"COc1cc(Nc2nc3ncc(C#N)c(-c4ccccc4C)n3n2)ccc1-n1cnc(C)c1 [Example 67, 2-(3-Methoxy-4-(4-methyl-1H-imidazol-1-yl)phenylamino)-7-o-tolyl-[1,2,4]triazolo[1,5-a]pyrimidine-6-carbonitrile]",450 nM
21,"COc1cc(Nc2nc3c(-c4ccc5nc(C)oc5c4)cc(C)cn3n2)ccc1-n1cnc(C)c1 [Example 87, N-(3-Methoxy-4-(4-methyl-1H-imidazol-1-yl)phenyl)-6-methyl-8-(2-methylbenzo[d]oxazol-6-yl)-[1,2,4]triazolo[1,5-a]pyridin-2-amine]",44 nM
22,"CCN(CC)c1cccc2nc(Nc3ccc(-n4cnc(C)c4)c(OC)c3)nn12 [Example 34, N5,N5-Diethyl-N2-[3-methoxy-4-(4-methyl-imidazol-1-yl)-phenyl]-[1,2,4]triazolo[1,5-a]pyridine-2,5-diamine]",640 nM
23,"COc1cc(Nc2nc3ncc(C#N)c(-c4ccccc4Cl)n3n2)ccc1-n1cnc(C)c1 [Example 38, 7-(2-Chloro-phenyl)-2-[3-methoxy-4-(4-methyl-imidazol-1-yl)-phenylamino]-[1,2,4]triazolo[1,5-a]pyrimidine-6-carbonitrile]",578 nM
24,"COc1cc(Nc2nc3c(OC)cccn3n2)ccc1-n1cnc(C)c1 [Example 7, [3-Methoxy-4-(4-methyl-imidazol-1-yl)-phenyl]-(8-methoxy-[1,2,4]triazolo[1,5-a]pyridin-2-yl)-amine]",930 nM
25,"COc1cc(Nc2nc3c(-c4ccc(Cl)cc4)ccc(C(C)(C)O)n3n2)ccc1-n1cnc(C)c1 [Example 116, 2-{8-(4-Chloro-phenyl)-2-[3-methoxy-4-(4-methyl-imidazol-1-yl)-phenylamino]-[1,2,4]triazolo[1,5-a]pyridin-5-yl}-propan-2-ol]",117 nM
26,"COc1cc(Nc2nc3c(-c4ccc(Cl)cc4CO)cc(C)cn3n2)ccc1-n1cnc(C)c1 [Example 92, (5-Chloro-2-(2-(3-methoxy-4-(4-methyl-1H-imidazol-1-yl)phenylamino)-6-methyl-[1,2,4]triazolo[1,5-a]pyridin-8-yl)phenyl)methanol]",375 nM
27,"COc1cc(Nc2nc3c(-c4ccc(CC#N)cc4)cc(C)cn3n2)ccc1-n1cnc(C)c1 [Example 83, 2-(4-(2-(3-Methoxy-4-(4-methyl-1H-imidazol-1-yl)phenylamino)-6-methyl-[1,2,4]triazolo[1,5-a]pyridin-8-yl)phenyl)acetonitrile]",408 nM
28,"COc1cc(Nc2nc3n(n2)CCCC3c2ccc(F)cc2)ccc1-n1cnc(C)c1 (racemic) [Example 1, [8-(4-Fluoro-phenyl)-5,6,7,8-tetrahydro-[1,2,4]triazolo[1,5-a]pyridin-2-yl]-[3-methoxy-4-(4-methyl-imidazol-1-yl)-phenyl]-amine]",330 nM
29,"COc1cc(Nc2nc3cc(C(F)(F)F)ccn3n2)ccc1-n1cnc(C)c1 [Example 47, [3-Methoxy-4-(4-methyl-imidazol-1-yl)-phenyl]-(7-trifluoromethyl-[1,2,4]triazolo[1,5-a]pyridin-2-yl)-amine]",1340 nM
